Experimental data: the NIST ThermoML archive (doi:10.1021/je800463k)
± gives the expanded uncertainty stated by the source.

Experiment: mn = molality of the nth substance listed, in mol/kg
Conditions: 101 kPa, Liquid; for mass density: Pycnometric method; for electrical conductivity: Frequency=0.001 MHz, Alternating current cell with electrodes; for speed of sound: Frequency=2 MHz

O=[N+]([O-])[O-].O=[N+]([O-])[O-].[Mg+2] [magnesium nitrate] + CO
Conditions | electrical conductivity [S/m] | mass density [kg/m3] | speed of sound [m/s] | viscosity [mPa·s]
308.75 K, m1 = 0.4555 | – | 824.82 ± 16 | – | –
308.75 K, m1 = 1.004 | – | 877.82 ± 43 | – | –
308.85 K, m1 = 1.492 | – | 927.12 ± 45 | – | –
309.1 K, m1 = 0.0082 | – | 775.87 ± 0.89 | – | –
309.4 K, m1 = 0.1047 | – | 789.92 ± 6.4 | – | –
309.75 K, m1 = 0.0545 | – | 782.89 ± 2.5 | – | –
309.75 K, m1 = 0.881 | – | 863.28 ± 35 | – | –
309.9 K, m1 = 0.2776 | – | 806.88 ± 12 | – | –
309.95 K, m1 = 1.259 | – | 904.15 ± 48 | – | –
310.1 K, m1 = 0.782 | – | 861.14 ± 32 | – | –
310.2 K, m1 = 0.0667 | – | 784.14 ± 3 | – | –
310.3 K, m1 = 1.71 | – | 944.04 ± 61 | – | –
310.4 K, m1 = 0.4024 | – | 818.47 ± 15 | – | –
310.45 K, m1 = 0.6276 | – | 841.27 ± 24 | – | –
310.65 K, m1 = 0.4555 | – | 823.17 ± 19 | – | –
310.7 K, m1 = 1.004 | – | 876 ± 28 | – | –
311.55 K, m1 = 1.875 | – | 953.58 ± 57 | – | –
311.6 K, m1 = 0.0082 | – | 773.44 ± 0.91 | – | –
311.7 K, m1 = 0.0667 | – | 782.46 ± 4.3 | – | –
311.9 K, m1 = 0.881 | – | 861.58 ± 35 | – | –
311.9 K, m1 = 1.259 | – | 902.37 ± 52 | – | –
312 K, m1 = 0.1047 | – | 787.42 ± 6.2 | – | –
312 K, m1 = 1.492 | – | 924.32 ± 56 | – | –
312.1 K, m1 = 0.4024 | – | 816.76 ± 14 | – | –
312.2 K, m1 = 0.4555 | – | 821.41 ± 19 | – | –
312.25 K, m1 = 0.6276 | – | 839.48 ± 26 | – | –
312.3 K, m1 = 0.0545 | – | 780.41 ± 3 | – | –
312.45 K, m1 = 1.71 | – | 942.18 ± 57 | – | –
312.5 K, m1 = 0.2776 | – | 804.41 ± 12 | – | –
312.85 K, m1 = 0.782 | – | 858.54 ± 40 | – | –
313.15 K, m1 = 0.0082 | 0.1573 ± 0.0001 | – | 1059.8 ± 6.3 | 0.4543 ± 0.026
313.15 K, m1 = 0.0545 | 0.4382 ± 0.0001 | – | 1066.6 ± 6.3 | 0.483 ± 0.027
313.15 K, m1 = 0.0667 | 0.4799 ± 0.0001 | – | 1067.2 ± 6.3 | 0.4662 ± 0.026
313.15 K, m1 = 0.1047 | 0.6326 ± 0.0001 | – | 1072.3 ± 6.3 | 0.5128 ± 0.028
313.15 K, m1 = 0.2776 | 1.215 ± 0.001 | – | 1090.3 ± 6.4 | 0.5885 ± 0.032
313.15 K, m1 = 0.4024 | 1.537 ± 0.001 | – | 1099.9 ± 6.4 | 0.6799 ± 0.036
313.15 K, m1 = 0.4555 | 1.625 ± 0.001 | – | 1105.5 ± 6.5 | 0.7062 ± 0.037
313.15 K, m1 = 0.6276 | 1.951 ± 0.001 | – | 1123.8 ± 6.5 | 0.8707 ± 0.044
313.15 K, m1 = 0.782 | 2.183 ± 0.001 | – | 1140.7 ± 6.6 | 0.9902 ± 0.049
313.15 K, m1 = 0.881 | 2.262 ± 0.001 | – | 1147.3 ± 6.6 | 0.9936 ± 0.049
313.15 K, m1 = 0.9116 | 2.287 ± 0.001 | – | 1150.2 ± 6.6 | 1.038 ± 0.051
313.15 K, m1 = 1.004 | 2.39 ± 0.001 | – | 1164.5 ± 6.7 | 1.124 ± 0.055
313.15 K, m1 = 1.259 | 2.502 ± 0.001 | – | 1183.5 ± 6.8 | 1.536 ± 0.073
313.15 K, m1 = 1.492 | 2.545 ± 0.001 | – | 1210.2 ± 6.9 | 1.837 ± 0.086
313.15 K, m1 = 1.71 | 2.587 ± 0.001 | – | 1231.4 ± 7 | 2.169 ± 0.1
313.15 K, m1 = 1.875 | 2.567 ± 0.001 | – | 1240.4 ± 7 | 2.45 ± 0.11
313.3 K, m1 = 0.0667 | – | 780.84 ± 3 | – | –
313.65 K, m1 = 1.004 | – | 873.36 ± 28 | – | –
313.7 K, m1 = 1.875 | – | 951.61 ± 48 | – | –
313.85 K, m1 = 0.4024 | – | 815.07 ± 16 | – | –
313.95 K, m1 = 0.0545 | – | 778.79 ± 3.5 | – | –
314 K, m1 = 0.0082 | – | 771.07 ± 0.94 | – | –
314.25 K, m1 = 1.492 | – | 922.37 ± 50 | – | –
314.4 K, m1 = 0.1047 | – | 784.98 ± 6.3 | – | –
314.6 K, m1 = 1.71 | – | 940.19 ± 57 | – | –
314.7 K, m1 = 0.881 | – | 858.85 ± 35 | – | –
314.8 K, m1 = 0.4555 | – | 818.87 ± 18 | – | –
314.85 K, m1 = 1.259 | – | 899.51 ± 52 | – | –
314.9 K, m1 = 0.6276 | – | 836.88 ± 23 | – | –
315.1 K, m1 = 0.2776 | – | 801.88 ± 11 | – | –
315.45 K, m1 = 0.4024 | – | 813.41 ± 17 | – | –
315.65 K, m1 = 0.0667 | – | 778.45 ± 3 | – | –
315.65 K, m1 = 0.782 | – | 855.81 ± 40 | – | –
315.8 K, m1 = 1.875 | – | 949.71 ± 56 | – | –
315.95 K, m1 = 0.1047 | – | 783.38 ± 4.4 | – | –
316.35 K, m1 = 0.0545 | – | 776.41 ± 3 | – | –
316.5 K, m1 = 0.4555 | – | 817.2 ± 19 | – | –
316.6 K, m1 = 0.881 | – | 857.07 ± 32 | – | –
316.6 K, m1 = 1.004 | – | 870.6 ± 43 | – | –
316.65 K, m1 = 0.6276 | – | 835.18 ± 24 | – | –
316.75 K, m1 = 1.259 | – | 897.65 ± 54 | – | –
317.35 K, m1 = 0.2776 | – | 799.43 ± 11 | – | –
317.35 K, m1 = 1.492 | – | 919.48 ± 50 | – | –
317.5 K, m1 = 0.782 | – | 854.04 ± 31 | – | –
317.8 K, m1 = 1.875 | – | 947.68 ± 47 | – | –
317.85 K, m1 = 1.71 | – | 937.24 ± 43 | – | –
318.15 K, m1 = 0.0082 | – | – | 1044.1 ± 6.2 | –
318.15 K, m1 = 0.0545 | – | – | 1045.1 ± 6.2 | –
318.15 K, m1 = 0.0667 | – | – | 1051.1 ± 6.2 | –
318.15 K, m1 = 0.1047 | – | – | 1056.1 ± 6.3 | –
318.15 K, m1 = 0.2776 | – | – | 1074.8 ± 6.3 | –
318.15 K, m1 = 0.4024 | – | – | 1083.3 ± 6.4 | –
318.15 K, m1 = 0.4555 | – | – | 1089.9 ± 6.4 | –
318.15 K, m1 = 0.6276 | – | – | 1108 ± 6.5 | –
318.15 K, m1 = 0.782 | – | – | 1124.4 ± 6.5 | –
318.15 K, m1 = 0.881 | – | – | 1131.9 ± 6.6 | –
318.15 K, m1 = 0.9116 | – | – | 1134 ± 6.6 | –
318.15 K, m1 = 1.004 | – | – | 1148.2 ± 6.6 | –
318.15 K, m1 = 1.259 | – | – | 1167.6 ± 6.7 | –
318.15 K, m1 = 1.492 | – | – | 1193.9 ± 6.8 | –
318.15 K, m1 = 1.71 | – | – | 1216.4 ± 6.9 | –
318.15 K, m1 = 1.875 | – | – | 1225.2 ± 6.9 | –
319.3 K, m1 = 0.881 | – | 854.45 ± 39 | – | –
319.45 K, m1 = 1.004 | – | 867.87 ± 43 | – | –
319.55 K, m1 = 1.259 | – | 894.9 ± 54 | – | –
320.2 K, m1 = 1.492 | – | 916.67 ± 57 | – | –
320.25 K, m1 = 0.782 | – | 851.43 ± 22 | – | –
320.75 K, m1 = 1.875 | – | 944.75 ± 47 | – | –
320.9 K, m1 = 1.71 | – | 934.37 ± 42 | – | –
323.15 K, m1 = 0.0082 | – | – | 1027.3 ± 6.1 | –
323.15 K, m1 = 0.0545 | – | – | 1033.4 ± 6.2 | –
323.15 K, m1 = 0.0667 | – | – | 1035.4 ± 6.2 | –
323.15 K, m1 = 0.1047 | – | – | 1039.7 ± 6.2 | –
323.15 K, m1 = 0.2776 | – | – | 1058.3 ± 6.3 | –
323.15 K, m1 = 0.4024 | – | – | 1067.5 ± 6.3 | –
323.15 K, m1 = 0.4555 | – | – | 1076.2 ± 6.3 | –
323.15 K, m1 = 0.6276 | – | – | 1093.5 ± 6.4 | –
323.15 K, m1 = 0.782 | – | – | 1108.6 ± 6.5 | –
323.15 K, m1 = 0.881 | – | – | 1115.5 ± 6.5 | –
323.15 K, m1 = 0.9116 | – | – | 1119.3 ± 6.5 | –
323.15 K, m1 = 1.004 | – | – | 1133.8 ± 6.6 | –
323.15 K, m1 = 1.259 | – | – | 1151.8 ± 6.6 | –
323.15 K, m1 = 1.492 | – | – | 1177.5 ± 6.7 | –
323.15 K, m1 = 1.71 | – | – | 1199 ± 6.8 | –
323.15 K, m1 = 1.875 | – | – | 1209.5 ± 6.9 | –
